Experimental data as given in US20230027066A1 (Urovant Sciences GmbH, priority 2019, published 2023).

Experiments:
[1] = system: men and women with overactive bladder; assay: 40-week extension study (52 weeks), efficacy; type: in vivo, human; conditions: for UUI Episodes 75% Responders at Week 52 / UUI Episodes 100% Responders at Week 52 / Urgency Episodes 50% Responders at Week 52: multiple imputation
Source text: All CFB calculations used the parent study Baseline value.

[2] = Source text: A placebo group was included in the main study, and a group that received tolterodine monotherapy was included in the main study and in the extension.
[3] = Phase 2b study, vital sign (HR, SBP, DBP) changes and orthostatic AEs; type: in vivo, human; conditions: tolterodine 4 mg
Source text: None led to discontinuation. The overall incidence of orthostatic symptoms was low.
Small differences in the percent of subjects exceeding categorical heart rate and blood pressure thresholds for vibegron were similar to those in the tolterodine arm.

[4] = 40-Week treatment group, Full Analysis Set Extension
[5] = 52-Week treatment group, Full Analysis Set Extension

Cc1ccc(O)c([C@H](CCN(C(C)C)C(C)C)c2ccccc2)c1 [Tolterodine ER, tolterodine, reference compound]
Micturitions, Change from Baseline at Week 52, Mean ([1]; 40-Week arm): −2.6
UUI Episodes, Change from Baseline at Week 52, Mean ([1]; 40-Week arm): −1.5
UUI Episodes, Week 52 Mean ([1]; 40-Week arm): 1.1
Urgency Episodes, Change from Baseline at Week 52, Mean ([1]; 40-Week arm): −3.5
Urgency Episodes, Week 52 Mean ([1]; 40-Week arm): 3.9
Micturitions, Week 52 Mean ([1]; 40-Week arm, Full Analysis Set Extension): 8.8
Total urinary incontinence episodes, Change from Baseline Mean at Week 52 [1, 4]: −1.9
Total urinary incontinence episodes, Week 52 Mean [1, 4]: 1.2
UUI Episodes 75% Responders at Week 52 ([1]; 40-Week treatment group): 54.0%
UUI Episodes 100% Responders at Week 52 ([1]; 40-Week treatment group): 37.8%
Urgency Episodes 50% Responders at Week 52 ([1]; 40-Week treatment group): 50.1%
Micturitions, Change from Baseline at Week 52, Mean ([1]; 52-Week arm): −2.3
UUI Episodes, Change from Baseline at Week 52, Mean ([1]; 52-Week arm): −1.7
UUI Episodes, Week 52 Mean ([1]; 52-Week arm): 1.4
Urgency Episodes, Change from Baseline at Week 52, Mean ([1]; 52-Week arm): −3.5
Urgency Episodes, Week 52 Mean ([1]; 52-Week arm): 4.7
Micturitions, Week 52 Mean ([1]; 52-Week arm, Full Analysis Set Extension): 9.0
Total urinary incontinence episodes, Change from Baseline Mean at Week 52 [1, 5]: −2.0
Total urinary incontinence episodes, Week 52 Mean [1, 5]: 1.7
UUI Episodes 75% Responders at Week 52 ([1]; 52-Week treatment group): 54.4%
UUI Episodes 100% Responders at Week 52 ([1]; 52-Week treatment group): 34.2%
Urgency Episodes 50% Responders at Week 52 ([1]; 52-Week treatment group): 51.0%
UUI Episodes, Change from Baseline LS Mean (SE) at Week 52 ([1]; 52-Weeks arm, Full Analysis Set Extension for Incontinence): −1.7 (0.17)
Micturitions, Change from Baseline LS Mean (SE) at Week 52 ([1]; 52-Weeks arm, mixed model for repeated measures): −2.0 (0.26)
Urgency episodes, Change from Baseline LS Mean (SE) at Week 52 ([1]; 52-Weeks treatment, Full Analysis Set Extension): −3.2 (0.37)
Total urinary incontinence episodes, Change from Baseline LS Mean (SE) at Week 52 ([1]; 52-Weeks treatment, Full Analysis Set Extension for Incontinence): −1.9 (0.19)
% Responders, 50% Reduction in Total Inc at Week 52 ([1]; 52-week treatment, Table 97): 62%
% Responders, 50% Reduction in UE at Week 52 ([1]; 52-week treatment, Table 97): 51%
% Responders, 75% Reduction in UUI at Week 52 ([1]; 52-week treatment, Table 97): 54%
% Responders, 100% Reduction in UUI at Week 52 ([1]; 52-week treatment, Table 97): 34%
Micturitions, Least Squares Means CFB at Week 52 ([1]; 52-week treatment, Table 97): −2.0
Total Incontinence Episodes, Least Squares Means CFB at Week 52 ([1]; 52-week treatment, Table 97): −1.9
UUI Episodes, Least Squares Means CFB at Week 52 ([1]; 52-week treatment, Table 97): −1.7
Urgency Episodes (UE), Least Squares Means CFB at Week 52 ([1]; 52-week treatment, Table 97): −3.2
Volume Voided, mean change from baseline at Week 52 ([1]; 52-week treatment, Table 97): 9 mL
frequency of injuries ([2]; Phase 2 study, tolterodine arm vs vibegron): 2.1%
SAEs reported in treatment group, number ([2]; tolterodine 4 mg, main study): 3
Accidental overdose ([2]; tolterodine ER 4 mg): 6 (2.3) n (%)
Alanine aminotransferase increased ([2]; tolterodine ER 4 mg): 1 (0.4) n (%)
Arthralgia ([2]; tolterodine ER 4 mg): 3 (1.2) n (%)
Aspartate aminotransferase increased ([2]; tolterodine ER 4 mg): 0 (0.0) n (%)
Constipation ([2]; tolterodine ER 4 mg): 5 (1.9) n (%)
Diarrhea ([2]; tolterodine ER 4 mg): 9 (3.5) n (%)
Discontinuation due to AE ([2]; tolterodine ER 4 mg): 4 (1.6) n (%)
Discontinuation due to drug-related AE ([2]; tolterodine ER 4 mg): 0 n (%)
Dizziness ([2]; tolterodine ER 4 mg): 5 (1.9) n (%)
Drug-related AE ([2]; tolterodine ER 4 mg): 42 (16.3) n (%)
Dry eye ([2]; tolterodine ER 4 mg): 10 (3.9) n (%)
Dry mouth ([2]; tolterodine ER 4 mg): 22 (8.6) n (%)
Dysuria ([2]; tolterodine ER 4 mg): 3 (1.2) n (%)
Fatigue ([2]; tolterodine ER 4 mg): 6 (2.3) n (%)
Headache ([2]; tolterodine ER 4 mg): 9 (3.5) n (%)
Nasopharyngitis ([2]; tolterodine ER 4 mg): 4 (1.6) n (%)
Nausea ([2]; tolterodine ER 4 mg): 6 (2.3) n (%)
Osteoarthritis ([2]; tolterodine ER 4 mg): 0 (0.0) n (%)
Pain in extremity ([2]; tolterodine ER 4 mg): 1 (0.4) n (%)
Serious AE ([2]; tolterodine ER 4 mg): 3 (1.2) n (%)
Sinusitis ([2]; tolterodine ER 4 mg): 1 (0.4) n (%)
Subjects with ≥1 AE ([2]; tolterodine ER 4 mg): 116 (45.1) n (%)
Urinary tract infection ([2]; tolterodine ER 4 mg): 12 (4.7) n (%)
DBP change from baseline, mean (95% CI) maximum, week 1 to 8 [3]: 5.19 (4.26, 6.13) mm Hg
DBP change from baseline, mean (95% CI), week 1 [3]: −0.12 (−1.10, 0.86) mm Hg
HR change from baseline, mean (95% CI) maximum, week 1 to 8 [3]: 5.66 (4.69, 6.63) bpm
HR change from baseline, mean (95% CI), week 1 [3]: 0.68 (−0.31, 1.67) bpm
